Measured values reported in US12403141B2, “Deuterated MK2 pathway inhibitors and methods of using the same” (ACLARIS THERAPEUTICS, INC., priority 2019, dated 2025).

Tests used:
rat hepatocytes = assay: In vitro metabolite profile in rat hepatocytes; type: in vitro ADME; parameters: key to UV % at 280-290 nm or observed (+ or --), metabolite M532b (Hydroxylation) / UV % at 280-290 nm or observed (+ or --), metabolite M532d (Hydroxylation) / UV % at 280-290 nm or observed (+ or --), metabolite M532e (Hydroxylation) / UV % at 280-290 nm or observed (+ or --), metabolite M530b (Hydroxylation) / UV % at 280-290 nm or observed (+ or --), metabolite M530d (Hydroxylation) / UV % at 280-290 nm or observed (+ or --), metabolite M530e (Hydroxylation): +: only detected by MS; --: not detected or trace; conditions: 10 μM; for UV % at 280-290 nm, Parent-T0 min: T0 min (normalized as 100%)
Procedure: (§1) Briefly, each test compound (final concentration of 10 μM containing 0.1% DMSO) was incubated with rat, dog, minipig, monkey, or human hepatocytes (final viable cell density of 1×10^6 cells/mL) at 37° C. with 5% CO2 in HI hepatocyte maintenance media (BIOIVT; Catalog #Z99009) for 120 minutes. Reactions were initiated by combining 200 μL of pre-warmed 2× dosing solution containing 20 μM test compound and 0.2% DMSO in HI maintenance media with 200 μL of pre-warmed hepatocyte solution containing 2×10^6 cells/mL in HI maintenance media. Samples were taken at 0 minutes (T0) and 120 minutes (T120) by quenching the reaction with 1200 μL acetonitrile. After quenching, the samples were sonicated for 2 minutes and then centrifuged at 1400 rpm for 5 minutes. A 1400-μL aliquot of the supernatant was evaporated under a stream of N2 until dry. The dried extracts were then reconstituted with 200 μL acetonitrile: H2O (1:3 v/v), vortexed for 2 minutes and centrifuged at 14000 rpm for 5 minutes. A 2-μL aliquot of the supernatant was injected onto a Xevo UPLC-UV-G2-S Q-Tof system (Waters®) with positive-ion electrospray ionization for analysis. Chromatographic separation was achieved on an Acquity UPLC®BEH C18 column (2.1×50 mm, 1.7 μm; Waters®) by gradient elution using varying proportions of mobile phase A (H2O with 0.1% formic acid) and mobile phase B (acetonitrile with 0.1% formic acid) at a constant flow rate of 400 μL/minute over a total run time of 10 minutes. LC-UV-MS extract ion chromatograms (EIC) of the T120 samples were compared to the T0 samples to identify the major putative metabolites which were named as Mm/z.

[1] = tested on: rat, dog, minipig, monkey, and human hepatocytes; assay: In vitro metabolite profile in hepatocytes, summary across species; type: in vitro ADME; conditions: hepatocytes from rat, 10 μM, 120 min
Procedure: as §1, with “Chromatographic separation was achieved on an Acquity UPLC®BEH C18 column (2.1×50 mm, 1.7 μm; Waters®) by gradient elution using varying proportions of mobile phase A (H2O with 0.1% formic acid) and mobile phase B (acetonitrile with 0.1% formic acid) at a constant flow rate of 400 μL/minute over a total run time of 10 minutes. LC-UV-MS extract ion chromatograms (EIC) of the T120 samples were compared to the T0 samples to identify the major putative metabolites which were named as Mm/z.” left out

[2] = 120 min, relative to parent at T0

Structure (SMILES)	UV % at 280-290 nm or observed (+ or --), metabolite M532b (Hydroxylation) (rat hepatocytes; [2])	UV % at 280-290 nm or observed (+ or --), metabolite M532e (Hydroxylation) (rat hepatocytes; [2])	UV % at 280-290 nm or observed (+ or --), metabolite M532d (Hydroxylation) (rat hepatocytes; [2])	UV % at 280-290 nm, Parent-T120 min (rat hepatocytes; [2]) [%]	UV % at 280-290 nm, Parent-T0 min (rat hepatocytes) [%]	total number of metabolites formed [1]	UV % at 280-290 nm or observed (+ or --), metabolite M387 (O-dealkylation) (rat hepatocytes; [2]) [%]	UV % at 280-290 nm or observed (+ or --), metabolite M530b (Hydroxylation) (rat hepatocytes; [2])	UV % at 280-290 nm or observed (+ or --), metabolite M530c (Hydroxylation) (rat hepatocytes; [2]) [%]	UV % at 280-290 nm or observed (+ or --), metabolite M530e (Hydroxylation) (rat hepatocytes; [2])	UV % at 280-290 nm or observed (+ or --), metabolite M563 (O-dealkylation + Glucuronidation) (rat hepatocytes; [2]) [%]	UV % at 280-290 nm or observed (+ or --), metabolite M530d (Hydroxylation) (rat hepatocytes; [2])
[2H]C([2H])(Oc1cc(C)n(-c2cc(-c3ccnc(C(C)(C)O)n3)ncc2C)c(=O)c1Cl)c1ncc(F)cc1F (single isomer, unassigned) [Example 1-D2, (P)-3-Chloro-4-((3,5-difluoropyridin-2-yl)methoxy-d2)-2′-(2-(2-hydroxypropan-2-yl)pyrimidin-4-yl)-5′,6-dimethyl-2H-[1,4′-bipyridin]-2-one]	--	+	--	84.3	100.0	5						
Cc1cnc(-c2ccnc(C(C)(C)O)n2)cc1-n1c(C)cc(OCc2ncc(F)cc2F)c(Cl)c1=O (atropisomer, axis not shown; (P)) [Example 1-H2, (P)-3-chloro-4-((3,5-difluoropyridin-2-yl)methoxy)-2′-(2-(2-hydroxypropan-2-yl)pyrimidin-4-yl)-5′,6-dimethyl-2H-[1,4′-bipyridin]-2-one]				82.7	100.0		16.2	+	1.1	+	1.06	--
